# Reference: article PMC5242348, “Triterpene Constituents of Euphorbia Erythradenia Bioss. and their Anti-HIV Activity” (Iranian Journal of Pharmaceutical Research : IJPR, 2016)
# Assays:
# [1] = XTT-based cytotoxicity assay; settings: human
# [2] = system: single cycle replicable HIV-1 (SCR HIV-1) virions; assay: microbe, parasite or virus in culture; settings: Human immunodeficiency virus 1, HeLa, 48 h, read-out: Anti HIV activity IC50 (concentration causing 50% HIV activity inhibition)
# [3] = system: single cycle replicable HIV-1 (SCR HIV-1) virions; settings: ratio of CC50 (Hela, XTT) to IC50 (p24)
Compound,CC50 at 3 days [1] [nM],IC50 [2] [nM],CC50 at 3 days ([1]; HeLa cells) [nM],Therapeutic index TI (CC50/IC50) [3]
"CC=C(C)C(=O)OC1C(CO)C(O)C2C(=O)C3(CC(C)C(OC(=O)CCC)C13)C(C)(OC(=O)c1cccnc1)CC1(OC(C)=O)C2C1(C)C (stereo not shown) [Compound 8, 13-acetyl-5-angeloyl-11-nicotinyl-3-butanoyl-1,2,6,7-tetrahydroingenol]",168,44,–,–
"CCC(=O)OC1C(C)CC23C(=O)C(C(OC(=O)c4ccccc4)C(COC(=O)c4cccnc4)C(OC(C)=O)C12)C1C(C)(C)C1(OC(C)=O)CC3(C)O (stereo not shown) [Compound 7, 5,13-diacetyl-7-benzoyl-20-nicotinyl-3-propionyl-1,2,6,7-tetrahydroingenol]",3260,8,–,–
C=C(C)C(O)CCC(C)C1CC[C@@]2(C)C3CCC4C(C)(C)[C@@H](O)CC[C@@]45C[C@@]35CC[C@]12C (stereo partly shown) [1a & 1b],–,3,14,4.67
"CC=C(C)C(=O)OC1C(COC(=O)c2cccnc2)C(OC(C)=O)C2C(=O)C3(CC(C)C(OC(=O)CC)C13)C(C)(O)CC1(OC(C)=O)C2C1(C)C (stereo not shown) [Compound 6, 7,13-diacetyl-5-angeloyl-20-nicotinyl-3-propionyl-1,2,6,7-tetrahydroingenol]",84,7,–,11.75
"CC1(C)CC[C@]2(C(=O)O)CC[C@]3(C)C(=CC[C@@H]4[C@@]5(C)CC[C@H](O)C(C)(C)[C@@H]5CC[C@]43C)[C@@H]2C1 [Compound 4, Oleanolic acid]",22,9,–,2.44
"Cc1ccnc2c1NC(=O)c1cccnc1N2C1CC1 [Nevirapine, reference compound]",6740,< 64,–,> 105.31
"CC(C/C=C\C(C)(C)O)C1CC[C@@]2(C)C3CCC4C(C)(C)[C@@H](O)CC[C@@]45C[C@@]35CC[C@]12C (stereo partly drawn) [Compound 2, Cycloart-23-ene-3β,25-diol]",–,6,22,3.67
"CC=C(C)C(=O)OC1C(COC(=O)c2cccnc2)C(O)C2C(=O)C3(CC(C)C(OC(=O)CCC)C13)C(C)(O)CC1(OC(C)=O)C2C1(C)C (stereo not shown) [Compound 5, 13-acetyl-3-butanoyl-5-angeloyl-20-nicotinyl-1,2,6,7-tetrahydroingenol]",4,36,–,0.11
